Data on 27 molecules can be found in patent US12336981B2, “Compounds and compositions for the inhibition of NAMPT” (Valo Health, Inc., priority 2010, dated 2025).

One test deals with U251 cells. Nature of the test: In-vitro cell proliferation assay (SRB), U251 cells. The format is cell-based. The following applies: Homo sapiens, U-251, 72 hours. The method, then: After overnight incubation at 37° C. and 5% CO2, the compound titrations were performed in a separate dilution plate by serially diluting the compounds in DMSO to make a 1000× stock. The compounds were then further diluted to 10× final concentration in culture media, whereupon 20 μL of each dilution was added to the plated cells with controls (e.g. DMSO and blank) to make a final volume of 5 200 μL. The final DMSO concentration in each well was 0.1%. The plates were then incubated for 72 hours at 37° C. in a 5% CO2 incubator. The number of viable cells was then assessed using sulforhodamine B (SRB) assay. Cells were fixed at 4° C. for 1 hour with the addition of 50 μL 30% trichloroacetic acid (TCA) to make a final concentration of 6% 10 TCA. The plates were washed four times with H2O and allowed to dry for at least 1 hour, whereupon 100 μL of a 4% SRB in 1% acetic acid solution was added to each well and incubated at room temperature for at least 30 minutes. The plates were then washed three times with 1% acetic acid, dried, and treated with 100 μL of 10 mM Tris-Base solution. The plates were then read in a microplate reader at an absorbance of 570 nm. 15 Background was generated on a separate plate with media only. Method for Determining % Inhibition First, the signals from the background plate are averaged, then the background was subtracted from the test plates.

In the next test the target is T1, NAMPT (Homo sapiens, UniProt P43490).
T1 construct: His tag; host or cells: E. coli
Nature of the test: Biochemical inhibition assay: NAMPT enzymatic reaction, NMN quantified by mass spectrometry. To be noted: read-out: Biochem IC50. A digest of the protocol: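 Inhibition of E. coli-expressed His-tagged human NAMPT, measured as NMN formation by mass spectrometry after a 30 min room-temperature reaction containing 1 μM NAM, 100 μM PRPP and 2.5 mM ATP.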

Test [1] concerns A2780 cells. As to the kind of experiment: In-vitro cell proliferation assay (SRB), A2780 cells. The format is cell-based. To be noted: Homo sapiens, A2780, 72 h, A2780 cells, 72 hours, read-out: A2780 IC50. A digest of the protocol: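 Read-out is SRB absorbance at 570 nm on TCA-fixed cells after 72 hours of compound treatment at 37° C. in 5% CO2. Background from a media-only plate is subtracted, and % inhibition is interpolated between two tested concentrations.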

For test [2], the system named is A2780 cells. As to the kind of experiment: Xenograft studies: A2780 tumors s.c. in C.B-17-Igh-1b-Prkdc scid mice. The format is in vivo. To be noted: female scid mice, p.o. BID for 5 or 10 days, dose selected from MTD study. The procedure:
C.B-17-Igh-1b-Prkdc^scid mice (female) were injected s.c. with 5×10^6 A2780 cells (NCI) in the left flank. 10-12 days later when tumors reached 100-200 mm3 in size, mice were randomized into treatment groups of 8 mice per group including vehicle control and reference standard groups. The compounds were formulated in 60:30:10 PEG-400: D5W: Ethanol and administered p.o., at the dose volume of 10 ml/kg BID for a duration of 5 or 10 days. The dose used for efficacy was selected from the MTD (Maximum Tolerated Dose) study. Mice were weighed and tumors measured using vernier calipers every alternate day. Tumor volume was calculated according to the formula (length×width^2)/2. All animal work was approved by the Institutional Animal Care and Use Committee of Biological Resource Centre, Singapore.

Each structure is given as a SMILES string. Where a name gives a salt, the structure may show the parent alone. Read-outs that look alike come from different tables or passages of the source.

T1 sequence (P43490 whole entry): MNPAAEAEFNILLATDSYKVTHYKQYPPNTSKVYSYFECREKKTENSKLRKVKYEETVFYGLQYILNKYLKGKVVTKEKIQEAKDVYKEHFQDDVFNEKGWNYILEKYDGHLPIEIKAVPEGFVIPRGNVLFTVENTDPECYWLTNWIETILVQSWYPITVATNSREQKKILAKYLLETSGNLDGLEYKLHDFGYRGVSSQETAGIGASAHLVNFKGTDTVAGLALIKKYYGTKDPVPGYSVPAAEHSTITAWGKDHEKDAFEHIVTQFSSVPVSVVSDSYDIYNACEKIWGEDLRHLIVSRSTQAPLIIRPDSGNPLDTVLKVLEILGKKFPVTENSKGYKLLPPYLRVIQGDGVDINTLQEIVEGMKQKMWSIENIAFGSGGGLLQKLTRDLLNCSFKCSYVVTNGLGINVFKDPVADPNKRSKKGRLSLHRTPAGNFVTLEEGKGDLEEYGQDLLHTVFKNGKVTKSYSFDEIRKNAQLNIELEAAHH

For the molecule `O=C(NCc1ccc([S+]([O-])c2cc(F)cc(F)c2)cc1)c1ccc2nccn2c1` (centres unmarked) [N-({4-[(3,5-difluorobenzene)sulfinyl]phenyl}methyl)imidazo[1,2-a]pyridine-6-carboxamide], half-maximal inhibition with U251 cells (IC50) was put at 6.6 nM.

Regarding `O=C(NCc1ccc(S(=O)(=O)c2cccc(Cl)c2)cc1)c1cc2cnccc2[nH]1` [N-({4-[(3-chlorobenzene)sulfonyl]phenyl}methyl)-1H-pyrrolo[3,2-c]pyridine-2-carboxamide], the IC50 (as a rule, the concentration needed to halve the response being measured) turned out to be 5 nM at NAMPT (NAMPT enzymatic reaction) and 3 nM in the test with A2780 cells [1] (SRB assay). Besides, the “Effect on tumor in A2780 xenograft” value with A2780 cells [2] was “tumor regression”. As for `CC(=O)c1ccc(S(=O)(=O)c2ccc(CNC(=O)c3cc4cnccc4[nH]3)cc2)cc1` [N-({4-[(4-acetylbenzene)sulfonyl]phenyl}methyl)-1H-pyrrolo[3,2-c]pyridine-2-carboxamide], the IC50 at NAMPT (NAMPT enzymatic reaction) was 7 nM; in the test with A2780 cells [1] (SRB assay) it was 3 nM. Also, the “Effect on tumor in A2780 xenograft” value in the test on A2780 cells [2] is listed as “tumor regression”. As for `O=C(NCc1ccc(S(=O)(=O)c2ccc(F)cc2)cc1)c1cc2cnccc2[nH]1` [N-({4-[(4-fluorobenzene)sulfonyl]phenyl}methyl)-1H-pyrrolo[3,2-c]pyridine-2-carboxamide], the IC50 at NAMPT (NAMPT enzymatic reaction) amounted to 38 nM; in the test on A2780 cells [1] (SRB assay), 8 nM. Also, the “Effect on tumor in A2780 xenograft” value in the test with A2780 cells [2] is on record as “tumor regression”. The matching figures for `O=C(NCc1ccc(S(=O)(=O)c2ccc(F)cc2)cc1)c1ccc2nccn2c1` [N-({4-[(4-fluorobenzene)sulfonyl]phenyl}methyl)imidazo[1,2-a]pyridine-6-carboxamide]: 23 nM, 11 nM and “tumor regression”. On to `O=C(NCc1ccc(S(=O)(=O)c2ccccc2OC(F)(F)F)cc1)c1cc2cnccc2[nH]1` [N-[(4-{[2-(trifluoromethoxy)benzene]sulfonyl}phenyl)methyl]-1H-pyrrolo[3,2-c]pyridine-2-carboxamide], for which the IC50 came out at 16 nM at NAMPT (NAMPT enzymatic reaction) and 3 nM in the test with A2780 cells [1] (SRB assay). The “Effect on tumor in A2780 xenograft” value in the test on A2780 cells [2] is on record as “tumor regression”. For `O=C(NCc1ccc(S(=O)(=O)Nc2ccccc2OC(F)(F)F)cc1)c1cc2cnccc2[nH]1` [N-[(4-{[2-(trifluoromethoxy)phenyl]sulfamoyl}phenyl)methyl]-1H-pyrrolo[3,2-c]pyridine-2-carboxamide], the values for the IC50 on NAMPT (NAMPT enzymatic reaction) and in the test on A2780 cells [1] (SRB assay) were 6 nM and 1 nM, respectively. Also, in the test with A2780 cells [2], the “Effect on tumor in A2780 xenograft” value is on record as “tumor stasis”. For `COc1cc(-n2cccn2)ccc1S(=O)(=O)c1ccc(CNC(=O)c2cc3cnccc3[nH]2)cc1` [N-[(4-{[2-methoxy-4-(1H-pyrazol-1-yl)benzene]sulfonyl}phenyl)methyl]-1H-pyrrolo[3,2-c]pyridine-2-carboxamide], the IC50 is 16 nM on NAMPT (NAMPT enzymatic reaction) and 2 nM with A2780 cells [1] (SRB assay). In the test on A2780 cells [2], the “Effect on tumor in A2780 xenograft” value is given as “delayed tumor growth”.

Take `NC1CCN(S(=O)(=O)c2ccc(CNC(=O)c3cc4ccncc4o3)cc2)C1` (centres unmarked) [N-{[4-(3-aminopyrrolidine-1-sulfonyl)phenyl]methyl}furo[2,3-c]pyridine-2-carboxamide hydrochloride]: in the test with U251 cells, it took 1850 nM to reach half-maximal inhibition (IC50).

As to `NC1CCN(S(=O)(=O)c2ccc(CNC(=O)c3cc4ccncc4s3)cc2)C1` (centres unmarked) [N-{[4-(3-aminopyrrolidine-1-sulfonyl)phenyl]methyl}thieno[2,3-c]pyridine-2-carboxamide hydrochloride], it took 310 nM to reach half-maximal inhibition in the test on U251 cells (IC50).

In the case of `O=C(NCc1ccc(S(=O)(=O)c2ccccc2)cc1)c1cc2ncccc2o1` [N-{[4-(benzenesulfonyl)phenyl]methyl}furo[3,2-b]pyridine-2-carboxamide], 545 nM corresponded to half-maximal inhibition in the test with U251 cells (IC50).

Take `O=C(NCc1ccc(S(=O)(=O)c2ccccc2)cc1)c1cn2ccnc2cn1` [N-{[4-(benzenesulfonyl)phenyl]methyl}imidazo[1,2-alpyrazinc-6-carboxamide]: the half-inhibitory concentration (IC50) with U251 cells was > 2000 nM. Regarding `O=C(NCc1ccc(S(=O)(=O)c2ccccc2)cc1)c1ccc2cncn2c1` [N-{[4-(benzenesulfonyl)phenyl]methyl}imidazo[1,5-alpyridine-6-carboxamide], the IC50 in the test with U251 cells is > 2000 nM. Regarding `O=C(NCc1ccc(S(=O)(=O)c2ccccc2)cc1)c1cc2ncccc2s1` [N-{[4-(benzenesulfonyl)phenyl]methyl}thieno[3,2-b]pyridine-2-carboxamide], the 50% inhibitory concentration (IC50) with U251 cells was > 2000 nM. As to `O=C(NCc1ccc(S(=O)(=O)N2CCNCC2)cc1)c1cc2ccncc2s1` [N-{[4-(pipcrazine-1-sulfonyl)phenyl]methyl}thieno[2,3-c]pyridine-2-carboxamide], the IC50 in the test on U251 cells was found to be 405 nM. `O=C(NCc1ccc(S(=O)(=O)N2CCNCC2)cc1)c1ccc2nccn2c1` [N-{[4-(piperazine-1-sulfonyl)phenyl]methyl}imidazo[1,2-a]pyridine-6-carboxamide] had an IC50 in the test with U251 cells of 556 nM. As for `O=C(NCc1ccc(S(=O)(=O)c2ccc3ncccc3c2)cc1)c1cnc2nccn2c1` [N-{[4-(quinoline-6-sulfonyl)phenyl]methyl}imidazo[1,2-a]pyrimidine-6-carboxamide], the values for the IC50 at NAMPT (NAMPT enzymatic assay) and in the test on A2780 cells [1] (SRB) were 3.3 nM and 5.6 nM, respectively. For `O=C(NCc1ccc(S(=O)(=O)c2ccc3ncccc3c2)cc1)c1cc2ccncc2s1` [N-{[4-(quinoline-6-sulfonyl)phenyl]methyl}thieno[2,3-c]pyridine-2-carboxamide], the values for the IC50 at NAMPT (NAMPT enzymatic reaction) and in the test on A2780 cells [1] (SRB assay) were 3 nM and 0.9 nM, respectively. As for `O=C(NCc1ccc(S(=O)(=O)c2cccc3cccnc23)cc1)c1cnc2[nH]ncc2c1` [N-{[4-(quinoline-8-sulfonyl)phenyl]methyl}-1H-pyrazolo[3,4-b]pyridine-5-carboxamide], the IC50 on NAMPT (NAMPT enzymatic assay) is 45.5 nM; in the test on A2780 cells [1] (SRB), 23.6 nM.

In the case of `O=C(NCc1ccc(S(=O)(=O)c2cccc3cccnc23)cc1)c1cc2ccncc2o1` [N-{[4-(quinoline-8-sulfonyl)phenyl]methyl}furo[2,3-c]pyridine-2-carboxamide], the figures for the IC50 at NAMPT (NAMPT enzymatic assay) and with A2780 cells [1] (SRB) were 7.6 nM and 6 nM, respectively.

For the molecule `O=C(NCc1ccc(S(=O)(=O)c2cccc3cccnc23)cc1)c1ccc2nccn2c1` [N-{[4-(quinoline-8-sulfonyl)phenyl]methyl}imidazo[1,2-a]pyridine-6-carboxamide], the IC50 on NAMPT (NAMPT enzymatic assay) came out at 9.8 nM; in the test on A2780 cells [1] (SRB), 5.5 nM. Consider `O=C(NCc1ccc(S(=O)(=O)c2cccc3cccnc23)cc1)c1cnc2nccn2c1` [N-{[4-(quinoline-8-sulfonyl)phenyl]methyl}imidazo[1,2-a]pyrimidine-6-carboxamide], for which the values for the IC50 on NAMPT (NAMPT enzymatic assay) and in the test with A2780 cells [1] (SRB) were 3 nM and 27.7 nM, respectively.

Consider `O=C(NCc1ccc(S(=O)(=O)c2cccc3cccnc23)cc1)c1cc2ccncc2s1` [N-{[4-(quinoline-8-sulfonyl)phenyl]methyl}thieno[2,3-c]pyridine-2-carboxamide], for which the results for the IC50 on NAMPT (NAMPT enzymatic reaction) and with A2780 cells [1] (SRB assay) were 6 nM and 2.5 nM, respectively.

On to `CC(C)CNC(=O)c1cccc(S(=O)(=O)c2ccc(CNC(=O)c3cc4ccncc4s3)cc2)c1` [N-{[4-({3-[(2-methylpropyl)carbamoyl]benzene}sulfonyl)phenyl]methyl}thieno[2,3-c]pyridine-2-carboxamide], for which the IC50 at NAMPT (NAMPT enzymatic assay) was 5.2 nM; in the test on A2780 cells [1] (SRB) it was 14.5 nM. In the case of `CC(C)NC(=O)c1cc(S(=O)(=O)c2ccc(CNC(=O)c3cnc4[nH]ncc4c3)cc2)ccc1F` [N-{[4-({4-fluoro-3-[(propan-2-yl)carbamoyl]benzene}sulfonyl)phenyl]methyl}-1H-pyrazolo[3,4-b]pyridine-5-carboxamide], the IC50 on NAMPT (NAMPT enzymatic assay) stood at 85.2 nM; with A2780 cells [1] (SRB), 63.1 nM. Consider `O=C(NCc1ccc(S(=O)(=O)c2ccccc2)cn1)c1cc2cnccc2[nH]1` [N-{[5-(benzenesulfonyl)pyridin-2-yl]methyl}-1H-pyrrolo[3,2-c]pyridine-2-carboxamide], for which the IC50 in the test with U251 cells came to 35 nM. As to `O=C(NCc1ccc(S(=O)(=O)c2ccccc2)nc1)c1cc2cnccc2[nH]1` [N-{[6-(benzenesulfonyl)pyridin-3-yl]methyl}-1H-pyrrolo[3,2-c]pyridine-2-carboxamide], the IC50 with U251 cells was > 2000 nM.
